One may read the IC50 as the concentration that inhibits the measured activity by half.

JMJD2C, sequence (Q9H3R0 2-372): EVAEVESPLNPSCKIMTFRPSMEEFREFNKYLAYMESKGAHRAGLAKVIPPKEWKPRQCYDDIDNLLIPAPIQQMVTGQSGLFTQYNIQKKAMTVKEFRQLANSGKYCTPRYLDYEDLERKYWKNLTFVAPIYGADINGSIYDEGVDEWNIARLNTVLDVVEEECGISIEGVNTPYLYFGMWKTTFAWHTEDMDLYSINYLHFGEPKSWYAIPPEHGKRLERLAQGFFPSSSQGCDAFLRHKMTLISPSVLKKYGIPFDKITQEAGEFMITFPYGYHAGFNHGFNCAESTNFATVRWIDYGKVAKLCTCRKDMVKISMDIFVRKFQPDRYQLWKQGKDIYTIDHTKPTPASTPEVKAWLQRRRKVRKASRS

This experiment has as its target JMJD2C (Homo sapiens (Human), UniProt Q9H3R0). In words: JMJD2C TR-FRET in vitro enzyme inhibition assay. It is filed as biochemical. The conditions noted are these: 0.3 nM JMJD2C, H3K9me3 peptide, read-out: JMJ-D2C IC50. For orientation: In TR-FRET formats the signal depends on donor and acceptor labels being close together.
Description: This assay determines the ability of a test compound to inhibit Jarid1A, Jarid1B, and JMJD2C demethylase activity. Baculovirus expressed Jarid1A (GenBank Accession #NM_001042603, AA1-1090) was purchased from BPS Bioscience (Cat #50110). Baculovirus expressed Jarid1B (GenBank Accession #NM_006618, AA 2-751) was purchased from BPS Bioscience (Cat #50121) or custom made by MolecularThroughput. Baculovirus-expressed JMJD2C (GenBank Accession #BC143571, AA 2-372) was purchased from BPS Bioscience (Cat #50105).
The ability of test compounds to inhibit the activity of JMJD2C was determined in 384-well plate format under the following reaction conditions: 0.3 nM JMJD2C, 300 nM H3K9me3-biotin labeled peptide (Anaspec cat #64360), 2 μM alpha-ketoglutaric acid in assay buffer of 50 mM HEPES, pH7.3, 0.005% Brij35, 0.5 mM TCEP, 0.2 mg/ml BSA, 50 μM sodium L-ascorbate, and 2 μM ammonium iron(II) sulfate. Reaction product was determined quantitatively by TR-FRET after the addition of detection reagent Phycolink Streptavidin-allophycocyanin (Prozyme) and Europium-anti-di-methylated histone H3 lysine 9 (H3K9me2) antibody (PerkinElmer) in the presence of 5 mM EDTA in LANCE detection buffer (PerkinElmer) at a final concentration of 50 nM and 1 nM, respectively.
The assay reaction was initiated by the following: 2 μl of the mixture of 900 nM H3K9me3-biotin labeled peptide and 6 μM alpha-ketoglutaric acid with 2 μl of 11-point serial diluted inhibitor in 3% DMSO were added to each well of the plate, followed by the addition of 2 μl of 0.9 nM JMJD2C to initiate the reaction. The reaction mixture was incubated at room temperature for 30 min, and terminated by the addition of 6 μl of 5 mM EDTA in LANCE detection buffer containing 100 nM Phycolink Streptavidin-allophycocyanin and 2 nM Europium-anti-H3K9me2 antibody. Plates were read by EnVisionMultilabel Reader in TR-FRET mode (excitation at 320 nm, emission at 615 nm and 665 nm) after 1 hr incubation at rt. A ratio was calculated (665/615) for each well and fitted to determine inhibition constant (IC50).
In the case of “3-{[(6-chloro-1,2,3,4-tetra- hydronaphthalen-1-yl)methyl]- amino}pyridine-4-carboxylic acid [Example 68]”, the concentration for half-maximal inhibition (IC50) fell in the range of 0.1 to 1 µM. Take “3-{[(6-chloro-1-hydroxy- 1,2,3,4-tetrahydronaphthalen- 1-yl)methyl]amino}pyridine- 4-carboxylic acid [Example 67]”: the IC50 was 0.1 to 1 µM. With `O=C(O)c1ccncc1NCC1CCOc2cc(F)ccc21` (stereo not drawn) [Example 65, 3-{[(7-fluoro-3,4-dihydro-2H-chromen-4-yl)methyl]amino}-pyridine-4-carhoxylic acid], the IC50 was not above 0.1 µM.

(Values after patent US11214542B2, “Histone demethylase inhibitors” (CELGENE QUANTICEL RESEARCH, INC., priority 2012, dated 2022).)
